Measurements from EP0403963A2, “Anthracycline derivatives, process for their preparation and their use as medicaments” (priority 1989, dated 1990).
Converted amounts (≈) assume the structure as drawn. Where two headings read alike, the source gives them in different places.

Columns and labels:
[1] = tested on: L1210 Leukämiezellen; assay: Proliferation test (MTT), continuous incubation; format: cell-based, Maus; settings: for IC50: Mus musculus, read-out: Zytotoxizität (Dauerinkubation) IC50
Protocol: Kontrollen bestehen aus Zellen, die lediglich mit frischem Medium inkubiert werden. Alle Bestimmungen werden als 4-fache Bestimmung durchgeführt. Nach 65 Stunden werden 50 ul MTT (3-(4,5-Dimethylthiazol-2-yl)-2,5-diphenyl-tetrazoliumbromid, 2,5 mg/mi in PBS) zugegeben. MTT wird durch lebende Zellen zu einem […], unlöslichen Formazan-Farbstoff reduziert. Nach einer weiteren 7-stündigen Inkubation wird das überstehende Medium vorsichtig abgesaugt. Der Formazan-Farbstoff wird durch Zugabe von jeweils 100 ul DMSO in die Vertiefungen der Mikrotiterplatte und vorsichtiges Schütteln gelöst. Die Extinktion der jeweiligen Lösung wird mit Hilfe eines Multiscan Photometers 340 CC, Fa. Flow, bei 492 nm gemessen.

[2] = Acute toxicity, intravenous injection; format: in vivo, Mäusen; settings: mouse, in vivo, iv; i.v. on day 0, 3 and 6; survivors counted on day 20; 2 mice per dose; read-out: akute Toxizität LD50
Protocol: (§1) Zur Ermittlung der akuten Toxizität wurden BDFi-Mäusen am Tag 0, Tag 3 und Tag 6 unterschiedliche Dosen der Testsubstanz, gelöst in 0,4 ml physiologischer Kochsalzlösung, intravenös injiziert. Kontrollgruppen erhielten lediglich 0,4 ml physiologischer Kochsalzlösung. Pro Konzentration der Testsubstanz wurden 2 Mäuse verwendet. Am Tag 20 wurde die Zahl der überlebenden Mäuse und daraus die LD50 ermittelt. Die Toxizität der hier beschriebenen Verbindungen im Vergleich zu Adriamycin ist in Tabelle 1 zusammengefaßt.

[3] = Qualitative solubility of the isolated substance; format: physicochemical; settings: solvents: Methanol, Ethylacetat, Chloroform, Wasser, Hexan
[4] = tested on: BDFi-Mäusen; assay: Acute toxicity, intravenous injection; format: in vivo; settings: i.v. on day 0, 3 and 6; survivors counted on day 20; 2 mice per dose; 28800 min
Protocol: as §1

[5] = L1210 cells, 72 h incubation, MTT readout at 492 nm

Compound	IC50 [1, 5] [µg/mL]	LD50 at 480 h [2] [mg/kg]	Löslichkeit [3]	IC50 ([1]; L1210, 72 h) [µg/mL]	Zytotoxizität (Dauerinkubation) IC50 [1, 5]	akute Toxizität LD50 [4] [mg/kg]
CC[C@@]1(O[C@H]2C[C@H](N(C)C)[C@H](O)[C@H](C)O2)CCc2c(O)c3c(c(O)c2[C@H]1O[C@H]1C[C@H](N(C)C)[C@H](O)[C@H](C)O1)C(=O)c1cccc(O)c1C3=O [9-0,10-0-Bis (α-L-rhodosaminyl)-γ-rhodomycinon]	0.35 (≈ 0.511 µM)	25 to 50	leicht löslich in Methanol, Ethylacetat, Chloroform, unlöslich in Wasser und Hexan	–	–	–
COc1cccc2c1C(=O)c1c(O)c3c(c(O)c1C2=O)C[C@@](O)(C(=O)CO)C[C@@H]3O[C@H]1C[C@H](N)[C@H](O)[C@H](C)O1 [Adriamycin, reference compound]	–	10	–	0.02 to 0.03 (≈ 0.0368 to 0.0552 µM)	–	–
Cytorhodin Z	–	–	leicht löslich in Methanol, Ethylacetat, Chloroform, unlöslich in Wasser und Hexan	–	0,33 µg/ml	10 to 25
